Among the data in ChEMBL document CHEMBL5532686, “Azole-based compounds as potential anti-Acanthamoeba agents” (RSC Med Chem, 2024) are inhibition, MIC50 and Activity values, retold here.

The term inhibition denotes the percentage by which the read-out fell short of the control. A word on the MIC50: it is the lowest concentration that inhibits either 50% of growth or 50% of the strains tested, depending on the study.

The test system of series [1] is Acanthamoeba castellanii. As to the kind of experiment: Anti-amoebic activity against Acanthamoeba castellanii genotype T4 (ATCC 50492) cysts assessed as reduction in excystation at 100 ug/ml incubated for 24 to 72 hrs by hemocytometer analysis. Format: functional. As to conditions: time 24-72 hrs.
In series [2] the test system is Acanthamoeba castellanii. Kind of series: Anti-amoebic activity against Acanthamoeba castellanii genotype T4 (ATCC 50492) trophozoites assessed as reduction in amoebae viability at 100 ug/ml incubated for 24 hrs by trypan blue exclusion test. Format: functional.
The test system of series [3] is Acanthamoeba castellanii. As to the kind of experiment: Anti-amoebic activity against Acanthamoeba castellanii genotype T4 (ATCC 50492) cysts assessed as reduction in excystation incubated for 24 to 72 hrs by hemocytometer analysis. Format: functional. As to conditions: time 24-72 hrs.
In series [4] the test system is Acanthamoeba castellanii. Kind of series: Anti-amoebic activity against Acanthamoeba castellanii genotype T4 (ATCC 50492) trophozoites infected in human HCT-116 cells assessed as protection against amoebae infection at 100 ug/ml amoebae pretreated with compound for 2 hrs followed by host cell infection and measured after 24 hrs by LDH assay. Format: functional, organism-based. As to conditions: dose 100.0 µg/ml, time 26.0 hrs.

Series [5] deals with Acanthamoeba castellanii. As to the kind of experiment: Anti-amoebic activity against Acanthamoeba castellanii genotype T4 (ATCC 50492) trophozoites assessed as reduction in encystation at 100 ug/ml incubated for 48 hrs by hemocytometer analysis. Format: functional, organism-based. As to conditions: dose 100.0 µg/ml.
Series [6] relates to HCT-116. Kind of series: Cytotoxicity against human HCT-116 cells at 100 ug/ml incubated for 24 hrs by LDH assay. The note with it: hct-116, 24 h, at 100 µg/mL. It counts as toxicity, cell-based.
Series [7] relates to Acanthamoeba castellanii. As to the kind of experiment: Anti-amoebic activity against Acanthamoeba castellanii genotype T4 (ATCC 50492) trophozoites assessed as reduction in amoebae viability incubated for 24 hrs by trypan blue exclusion test. It counts as functional.
Series [8] deals with HCT-116. Kind of series: Cytotoxicity against human HCT-116 cells at 5X excystation MIC50 concentration incubated for 24 hrs by LDH assay. Format: toxicity, cell-based. The note with it: hct-116, 24 h.

≈ marks a conversion by molar mass, not a printed value. Calls of active or inactive are those of the source. The calls are words filed in the database; no cut-off is given here.

Consider `CC(C)(C)c1ccc(-c2nnc(SCc3cccc(C(F)(F)F)c3)n2-c2cccc(Cl)c2)cc1`, for which the inhibition at 100 µg/mL in the series with Acanthamoeba castellanii [1] was determined as 78%; with Acanthamoeba castellanii [2], 25%. Further, the MIC50 in the series on Acanthamoeba castellanii [3] worked out at 80.6 µg/mL (≈ 160 µM); with Acanthamoeba castellanii [7] it was 144 µg/mL (≈ 287 µM). Moreover, the result in the series on Acanthamoeba castellanii [4] and with Acanthamoeba castellanii [5] was inactive. The same compound came in with an Activity with HCT-116 [6] of 35%.
For `Cc1ccc(-n2c(SCc3cccc(C(F)(F)F)c3)nnc2-c2ccc(C(C)(C)C)cc2)cc1`, the inhibition at 100 µg/mL in the series on Acanthamoeba castellanii [1] is 86%; with Acanthamoeba castellanii [2] it was 27%. Also, the MIC50 in the series on Acanthamoeba castellanii [3] turned out to be 19.5 µg/mL (≈ 40.6 µM); with Acanthamoeba castellanii [7], 180 µg/mL (≈ 373 µM). For the same compound, the result in the series on Acanthamoeba castellanii [4] and with Acanthamoeba castellanii [5] was inactive. The compound also had an Activity with HCT-116 [6] of 35%.
Take `CC(C)(C)c1ccc(-c2nnc(SCc3cccc(C(F)(F)F)c3)n2-c2ccccc2)cc1`: the figures for the inhibition at 100 µg/mL in the series on Acanthamoeba castellanii [1] and in the series on Acanthamoeba castellanii [2] were 78% and 17%, respectively. The MIC50 with Acanthamoeba castellanii [3] turned out to be 85.5 µg/mL (≈ 183 µM); in the series on Acanthamoeba castellanii [7], 239 µg/mL (≈ 512 µM). The result in the series with Acanthamoeba castellanii [4] and in the series with Acanthamoeba castellanii [5] was inactive.
In the case of `CC(C)c1ccc(-c2nnc(SCc3cccc(C(F)(F)F)c3)n2-c2cccc(Br)c2)cc1`, the inhibition at 100 µg/mL with Acanthamoeba castellanii [1] was 77%; in the series on Acanthamoeba castellanii [2], 34%. For the same compound, the MIC50 worked out at 32 µg/mL (≈ 60.1 µM) with Acanthamoeba castellanii [3] and 125 µg/mL (≈ 235 µM) in the series with Acanthamoeba castellanii [7]. The outcome in the series with Acanthamoeba castellanii [4] and in the series on Acanthamoeba castellanii [5] was inactive. Moreover, in the series with HCT-116 [8], the Activity was determined as 17%.
